# Assay results published in US10759813B2, “Neprilysin inhibitors” (THERAVANCE BIOPHARMA R&D IP, LLC, priority 2010, dated 2020).
# Target: human neprilysin (EC 3.4.24.11; NEP) (Homo sapiens (Human), UniProt P08473)
# Assay: In vitro enzyme inhibition assay at human NEP (fluorogenic peptide substrate)
# Type: biochemical
# Conditions: pKi values at human NEP, recombinant human NEP
# Protocol: In Vitro Assays for the Quantitation of Inhibitor Potencies at Human and Rat NEP, and Human ACE
# The inhibitory activities of compounds at human and rat neprilysin (EC 3.4.24.11; NEP) and human angiotensin converting enzyme (ACE) were determined using in vitro assays as described below.
# Recombinant human NEP and recombinant human ACE were obtained commercially (R&D Systems, Minneapolis, Minn., catalog numbers 1182-ZN and 929-ZN, respectively). The fluorogenic peptide substrate Mca-D-Arg-Arg-Leu-Dap-(Dnp)-OH (Medeiros et al. (1997) Braz. J. Med. Biol. Res. 30:1157-62; Anaspec, San Jose, Calif.) and Abz-Phe-Arg-Lys(Dnp)-Pro-OH (Araujo et al. (2000) Biochemistry 39:8519-8525; Bachem, Torrance, Calif.) were used in the NEP and ACE assays respectively.
# The assays were performed in 384-well white opaque plates at 37° C. using the fluorogenic peptide substrates at a concentration of 10 μM in Assay Buffer (NEP: 50 mM HEPES, pH 7.5, 100 mM NaCl, 0.01% polyethylene glycol sorbitan monolaurate (Tween-20), 10 μM ZnSO4; ACE: 50 mM HEPES, pH 7.5, 100 mM NaCl, 0.01% Tween-20, 1 μM ZnSO4).
# Test compounds were assayed over the range of concentrations from 10 μM to pM. Test compounds were added to the enzymes and incubated for 30 minute at 37° C. prior to initiating the reaction by the addition of substrate. Reactions were terminated after 20 minutes of incubation at 37° C. by the addition of glacial acetic acid to a final concentration of 3.6% (v/v).
# Plates were read on a fluorometer with excitation and emission wavelengths set to 320 nm and 405 nm, respectively. Inhibition constants were obtained by nonlinear regression of the data using the equation (GraphPad Software, Inc., San Diego, Calif.): v=v0/[1+(I/K′)] where v is the reaction rate, v0 is the uninhibited reaction rate, I is the inhibitor concentration and K′ is the apparent inhibition constant.
# Compounds of the invention were tested in this assay and found to have pKi values at human NEP as follows.
# Chain of human neprilysin (EC 3.4.24.11; NEP) (P08473 52-750): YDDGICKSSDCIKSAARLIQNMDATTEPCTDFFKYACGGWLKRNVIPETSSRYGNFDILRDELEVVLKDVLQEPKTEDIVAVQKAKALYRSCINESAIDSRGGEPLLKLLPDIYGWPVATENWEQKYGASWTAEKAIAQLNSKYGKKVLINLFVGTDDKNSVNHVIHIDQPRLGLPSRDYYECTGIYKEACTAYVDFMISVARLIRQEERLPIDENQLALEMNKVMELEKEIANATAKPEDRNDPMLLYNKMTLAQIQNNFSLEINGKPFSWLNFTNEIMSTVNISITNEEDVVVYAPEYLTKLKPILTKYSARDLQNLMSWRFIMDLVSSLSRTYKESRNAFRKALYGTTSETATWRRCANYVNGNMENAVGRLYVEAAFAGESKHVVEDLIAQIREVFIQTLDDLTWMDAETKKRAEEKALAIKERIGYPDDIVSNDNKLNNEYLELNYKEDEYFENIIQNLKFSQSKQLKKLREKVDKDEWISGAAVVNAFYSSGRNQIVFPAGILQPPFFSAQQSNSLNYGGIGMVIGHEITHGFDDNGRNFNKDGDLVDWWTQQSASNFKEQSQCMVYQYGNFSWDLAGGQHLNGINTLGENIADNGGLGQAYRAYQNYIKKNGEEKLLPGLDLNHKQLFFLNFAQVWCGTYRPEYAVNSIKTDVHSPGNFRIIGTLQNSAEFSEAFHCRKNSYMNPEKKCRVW
SMILES,Ki [nM],pKi
"O=C(N[C@H](Cc1ccc(-c2ccccc2)cc1)C[C@@H](O)C(=O)O)c1nc(-c2ccccc2Cl)no1 [Example 12-26, (2R,4R)-5-Biphenyl-4-yl-4-{[3-(2-chlorophenyl)-[1,2,4]oxadiazole-5-carbonyl]-amino}-2-hydroxy-pentanoic acid]",1.26 to 10,
"O=C(O)c1ccc(C(=O)N[C@H](Cc2ccc(-c3ccccc3)cc2)CC(O)C(=O)O)nn1 (stereo partly drawn) [Example 13-3, 6-((R)-1-Biphenyl-4-ylmethyl-3-carboxy-3-hydroxypropylcarbamoyl)-pyridazine-3-carboxylic acid]",12.6 to 100,
"O=C(N[C@H](Cc1ccc(-c2ccccc2)cc1)CC(O)C(=O)O)c1ccc(O)nn1 (stereo partly drawn) [Example 13-5, (R)-5-Biphenyl-4-yl-2-hydroxy-4-[(6-hydroxypyridazine-3-carbonyl)-amino]-pentanoic acid]",12.6 to 100,
"O=C(N[C@H](Cc1ccc(-c2ccccc2)cc1)CC(O)C(=O)O)c1cc[nH]n1 (stereo partly drawn) [Example 15-1, (R)-5-Biphenyl-4-yl-2-hydroxy-4-[(1H-pyrazole-3-carbonyl)amino]pentanoic acid]",12.6 to 100,
"O=C(O)Cc1cc(C(=O)N[C@H](Cc2ccc(-c3ccccc3)cc2)C[C@@H](O)C(=O)O)n[nH]1 [Example 15-2, (2R,4R)-5-Biphenyl-4-yl-4-[(5-carboxymethyl-1H-pyrazole-3-carbonyl)amino]-2-hydroxy-pentanoic acid]",1.26 to 10,
"O=C(N[C@H](Cc1ccc(-c2ccccc2)cc1)C[C@@H](O)C(=O)O)c1cc(CO)[nH]n1 [Example 15-3, (2R,4R)-5-Biphenyl-4-yl-2-hydroxy-4-[(5-hydroxymethyl-1H-pyrazole-3-carbonyl)-amino]-pentanoic acid]",1.26 to 10,
"O=C(N[C@H](Cc1ccc(-c2ccccc2)cc1)CC(O)C(=O)O)c1cc(C(=O)O)n(Cc2ccc(Cl)c(SC(F)(F)F)c2)n1 (stereo partly drawn) [Example 15-6, 5-((R)-1-Biphenyl-4-ylmethyl-3-carboxy-3-hydroxypropylcarbamoyl)-2-(4-chloro-3-trifluoromethylsulfanyl-benzyl)-2H-pyrazole-3-carboxylic acid]",12.6 to 100,
"O=C(N[C@H](Cc1ccc(-c2ccccc2)cc1)CC(O)C(=O)O)c1cc(C(=O)O)n(Cc2cccc(Cl)c2)n1 (stereo partly drawn) [Example 15-7, 5-((R)-1-Biphenyl-4-ylmethyl-3-carboxy-3-hydroxypropylcarbamoyl)-2-(3-chlorobenzyl)-2H-pyrazole-3-carboxylic acid]",1.26 to 10,
"O=C(N[C@H](Cc1ccc(-c2ccccc2)cc1)CC(O)C(=O)O)c1cc(C(=O)O)n(Cc2c(F)cc(Cl)cc2F)n1 (stereo partly drawn) [Example 15-8, 5-((R)-1-Biphenyl-4-ylmethyl-3-carboxy-3-hydroxy-propylcarbamoyl)-2-(4-chloro-2,6-difluorobenzyl)-2H-pyrazole-3-carboxylic acid]",1.26 to 10,
"O=C(N[C@H](Cc1ccc(-c2ccccc2)cc1)CC(O)C(=O)O)c1cc(C(=O)O)n(Cc2ccccc2Cl)n1 (stereo partly drawn) [Example 15-9, 5-((R)-1-Biphenyl-4-ylmethyl-3-carboxy-3-hydroxy-propylcarbamoyl)-2-(2-chlorobenzyl)-2H-pyrazole-3-carboxylic acid]",1.26 to 10,
"O=C(N[C@H](Cc1ccc(-c2ccccc2)cc1)CC(O)C(=O)O)c1cc(C(=O)O)n(Cc2ccc(Cl)c(OC(F)(F)F)c2)n1 (stereo partly drawn) [Example 15-12, 5-((R)-1-Biphenyl-4-ylmethyl-3-carboxy-3-hydroxy-propylcarbamoyl)-2-(4-chloro-3-trifluoromethoxybenzyl)-2H-pyrazole-3-carboxylic acid]",12.6 to 100,
"O=C(N[C@H](Cc1ccc(-c2ccccc2)cc1)CC(O)C(=O)O)c1cc(C(=O)O)n(Cc2ccc(F)c(Cl)c2)n1 (stereo partly drawn) [Example 15-14, 5-((R)-1-Biphenyl-4-ylmethyl-3-carboxy-3-hydroxy-propylcarbamoyl)-2-(3-chloro-4-fluorobenzyl)-2H-pyrazole-3-carboxylic acid]",1.26 to 10,
"O=C(N[C@H](Cc1ccc(-c2ccccc2)cc1)CC(O)C(=O)O)c1cc(C(=O)O)n(Cc2c(F)ccc(Cl)c2F)n1 (stereo partly drawn) [Example 15-16, 5-((R)-1-Biphenyl-4-ylmethyl-3-carboxy-3-hydroxy-propylcarbamoyl)-2-(3-chloro-2,6-difluorobenzyl)-2H-pyrazole-3-carboxylic acid]",1.26 to 10,
"COc1cccc(Cn2nc(C(=O)N[C@H](Cc3ccc(-c4ccccc4)cc3)CC(O)C(=O)O)cc2C(=O)O)c1 (stereo partly drawn) [Example 15-17, 5-((R)-1-Biphenyl-4-ylmethyl-3-carboxy-3-hydroxy-propylcarbamoyl)-2-(3-methoxy-benzyl)-2H-pyrazole-3-carboxylic acid]",12.6 to 100,
"Cc1cc(C(=O)N[C@H](Cc2ccc(-c3ccccc3)cc2)CC(O)C(=O)O)n[nH]1 (stereo partly drawn) [Example 15-19, (R)-5-Biphenyl-4-yl-2-hydroxy-4-[(5-methyl-1H-pyrazole-3-carbonyl)amino]pentanoic acid]",12.6 to 100,
"O=C(N[C@H](Cc1ccc(-c2ccccc2)cc1)C[C@@H](O)C(=O)O)c1cc(-c2ccncc2)[nH]n1 [Example 15-20, (2R,4R)-5-Biphenyl-4-yl-2-hydroxy-4-[(5-pyridin-4-yl-1H-pyrazole-3-carbonyl)-amino]-pentanoic acid]",1.26 to 10,

# Continued, values first:
Ki [nM],pKi,SMILES
,≥9.0,"O=C(N[C@H](Cc1ccc(-c2ccccc2)cc1)C[C@@H](O)C(=O)O)c1noc(=O)[nH]1 [Example 12-27, (2R,4R)-5-Biphenyl-4-yl-2-hydroxy-4-[(5-oxo-4,5-dihydro-[1,2,4]oxadiazole-3-carbonyl)-amino]-pentanoic acid]"
1.26 to 10,,"O=C(O)c1cnc(C(=O)N[C@H](Cc2ccc(-c3ccccc3)cc2)CC(O)C(=O)O)cn1 (stereo partly drawn) [Example 13-1, 5-((R)-1-Biphenyl-4-ylmethyl-3-carboxy-3-hydroxypropylcarbamoyl)-pyrazine-2-carboxylic acid]"
12.6 to 100,,"O=C1CCC(C(=O)N[C@H](Cc2ccc(-c3ccccc3)cc2)CC(O)C(=O)O)=NN1 (stereo partly drawn) [Example 13-6, (R)-5-Biphenyl-4-yl-2-hydroxy-4-[(6-oxo-1,4,5,6-tetrahydro-pyridazine-3-carbonyl)-amino]-pentanoic acid]"
12.6 to 100,,"O=C(O)c1ccc(C(=O)N[C@H](Cc2ccc(-c3ccccc3)cc2)CC(O)C(=O)O)nc1 (stereo partly drawn) [Example 13-7, 6-((R)-1-Biphenyl-4-ylmethyl-3-carboxy-3-hydroxypropylcarbamoyl)nicotinic acid]"
12.6 to 100,,"O=C(N[C@H](Cc1ccc(-c2ccccc2)cc1)CC(O)C(=O)O)c1ccc(C(=O)O)nc1 (stereo partly drawn) [Example 13-8, 5-((R)-1-Biphenyl-4-ylmethyl-3-carboxy-3-hydroxypropylcarbamoyl)-pyridine-2-carboxylic acid]"
1.26 to 10,,"COCc1cc(C(=O)N[C@H](Cc2ccc(-c3ccccc3)cc2)C[C@@H](O)C(=O)O)n[nH]1 [Example 15-4, (2R,4R)-5-Biphenyl-4-yl-2-hydroxy-4-[(5-methoxymethyl-1H-pyrazole-3-carbonyl)-amino]-pentanoic acid]"
,≥9.0,"Cn1nc(C(=O)N[C@H](Cc2ccc(-c3ccccc3)cc2)C[C@@H](O)C(=O)O)cc1C(=O)O [Example 15-5, 5-((1R,3R)-1-Biphenyl-4-ylmethyl-3-carboxy-3-hydroxypropylcarbamoyl)-2-methyl-2H-pyrazole-3-carboxylic acid]"
1.26 to 10,,"O=C(N[C@H](Cc1ccc(-c2ccccc2)cc1)CC(O)C(=O)O)c1cc(C(=O)O)n(Cc2cc(F)ccc2Cl)n1 (stereo partly drawn) [Example 15-10, 5-((R)-1-Biphenyl-4-ylmethyl-3-carboxy-3-hydroxy-propylcarbamoyl)-2-(2-chloro-5-fluorobenzyl)-2H-pyrazole-3-carboxylic acid]"
1.26 to 10,,"O=C(N[C@H](Cc1ccc(-c2ccccc2)cc1)CC(O)C(=O)O)c1cc(C(=O)O)n(Cc2cc(F)cc(Cl)c2)n1 (stereo partly drawn) [Example 15-11, 5-((R)-1-Biphenyl-4-ylmethyl-3-carboxy-3-hydroxy-propylcarbamoyl)-2-(3-chloro-5-fluorobenzyl)-2H-pyrazole-3-carboxylic acid]"
1.26 to 10,,"O=C(N[C@H](Cc1ccc(-c2ccccc2)cc1)CC(O)C(=O)O)c1cc(C(=O)O)n(Cc2ccc(Cl)cc2F)n1 (stereo partly drawn) [Example 15-13, 5-((R)-1-Biphenyl-4-ylmethyl-3-carboxy-3-hydroxy-propylcarbamoyl)-2-(4-chloro-2-fluorobenzyl)-2H-pyrazole-3-carboxylic acid]"
1.26 to 10,,"O=C(N[C@H](Cc1ccc(-c2ccccc2)cc1)CC(O)C(=O)O)c1cc(C(=O)O)n(Cc2ccc(Cl)cc2)n1 (stereo partly drawn) [Example 15-15, 5-((R)-1-Biphenyl-4-ylmethyl-3-carboxy-3-hydroxy-propylcarbamoyl)-2-(4-chlorobenzyl)-2H-pyrazole-3-carboxylic acid]"
